Data on 21 molecules can be found in US10919852B2, “Immunomodulator compounds” (CHEMOCENTRYX, INC., priority 2017, dated 2021).

A value given as a limit tells only on which side of the number the result lay.

As a reminder, the IC50 is the concentration that gives 50% inhibition. Read a low IC50 as greater potency.

human PD-L1 / Human PD-1, sequence (Q9NZQ7 19-239): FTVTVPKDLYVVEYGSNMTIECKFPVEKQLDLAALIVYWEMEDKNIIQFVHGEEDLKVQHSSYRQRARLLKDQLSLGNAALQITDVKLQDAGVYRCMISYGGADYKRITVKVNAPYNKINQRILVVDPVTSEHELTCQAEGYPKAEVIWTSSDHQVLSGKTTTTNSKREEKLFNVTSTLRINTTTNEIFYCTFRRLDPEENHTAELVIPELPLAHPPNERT

This test concerns the target human PD-L1 / Human PD-1 (Homo sapiens (Human), UniProt Q9NZQ7). As to the kind of experiment: Enzyme-Linked Immunosorbent Assay (ELISA), PD-1/PD-L1 binding. Conditions: plate-coated human PD-L1, biotinylated human PD-1. A digest of the protocol: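 Compound dilutions (1:5 series) competed with 0.3 μg/mL biotin-labelled human PD-1 for PD-L1 immobilised at […], for 1 h at 37 °C. Read-out was A450 after streptavidin-HRP and a 20 min TMB reaction, stopped with 2 N H2SO4.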
Molecule `N#Cc1cncc(COc2cc(O[C@H]3CCc4c(-c5cccc(OCCCN6CCC(O)CC6)c5Cl)cccc43)c(Cl)cc2CN[C@@H](CO)C(=O)O)c1` showed an IC50 below 5 nM.

Regarding `C[C@@H](O)[C@H](NCc1cc(Cl)c(O[C@H]2CCc3c(-c4cccc(OCCCN5CCC(O)CC5)c4Cl)cccc32)cc1OCc1cncc(C#N)c1)C(=O)O`, the IC50 was below 5 nM.

`N#Cc1cncc(COc2cc(O[C@H]3CCc4c(-c5cccc(OCCCN6CC7(C6)CC(F)(F)C7)c5Cl)cccc43)c(Cl)cc2CN[C@H]2CCC[C@H]2O)c1` displayed an IC50 below 5 nM.

Consider `N#Cc1cncc(COc2cc(O[C@H]3CCc4c(-c5cccc(OCCCN6CC7(C6)CC(F)(F)C7)c5Cl)cccc43)c(Cl)cc2CN[C@H]2CCC[C@@H]2O)c1`, for which the IC50 was below 5 nM.

The molecule `N#Cc1cncc(COc2cc(O[C@H]3CCc4c(-c5cccc(OCCCN6CC7(C6)CC(F)(F)C7)c5Cl)cccc43)c(Cl)cc2CN2CC3(C2)NC(=O)NC3=O)c1` displayed an IC50 of 5 to 500 nM.

`Cc1c(OCCCN2CC3(CCC3)C2)cccc1-c1cccc2c1CC[C@@H]2Oc1cc(OCc2cc(C#N)cc(C#N)c2)c(CNC[C@@H]2CCC(=O)N2)cc1Cl` returned an IC50 below 5 nM.

Take `Cc1c(OCCCN2CCC(C)CC2)cccc1-c1cccc2c1CC[C@@H]2Oc1cc(OCc2cc(C#N)cc(C#N)c2)c(CNC[C@H]2CCC(=O)N2)cc1Cl`: the IC50 is below 5 nM.

As to `Cc1c(OCCCN2CCC(C)CC2)cccc1-c1cccc2c1CC[C@@H]2Oc1cc(OCc2cc(C#N)cc(C#N)c2)c(CNC[C@@H]2CCC(=O)N2)cc1Cl`, the IC50 is below 5 nM.

As for `Cc1c(OCCCN2CC3(CC(O)C3)C2)cccc1-c1cccc2c1CC[C@@H]2Oc1cc(OCc2cc(C#N)cc(C#N)c2)c(CNC[C@H]2CCC(=O)N2)cc1Cl`, the IC50 was below 5 nM.

The molecule `Cc1c(OCCCN2CC3(C2)CC(F)(F)C3)cccc1-c1cccc2c1CC[C@@H]2Oc1cc(OCc2cc(C#N)cc(C#N)c2)c(CNC[C@H]2CCC(=O)N2)cc1Cl` came in with an IC50 of 5 to 500 nM.

Consider `Cc1c(OCCCN2CCC(C)(F)CC2)cccc1-c1cccc2c1CC[C@@H]2Oc1cc(OCc2cncc(C#N)c2)c(CNC[C@H]2CCC(=O)N2)cc1Cl`, for which the IC50 is 5 to 500 nM.

In the case of `Cc1c(OCCCN2CCC(C)(F)CC2)cccc1-c1cccc2c1CC[C@@H]2Oc1cc(OCc2cncc(C#N)c2)c(CNC[C@@H]2CCC(=O)N2)cc1Cl`, the IC50 is below 5 nM.

`N#Cc1cncc(COc2cc(O[C@H]3CCc4c(-c5cccc(OCCCN6CCC(F)CC6)c5Cl)cccc43)c(Cl)cc2CN[C@@H]2CC[C@H]2O)c1` returned an IC50 below 5 nM.

`Cc1c(OCCCN2CCC(C)(F)CC2)cccc1-c1cccc2c1CC[C@@H]2Oc1cc(OCc2cncc(C#N)c2)c(CN[C@@H]2CCC(=O)NC2)cc1Cl` came in with an IC50 below 5 nM.

In turn, `Cc1c(OCCCN2CCC(C)(F)CC2)cccc1-c1cccc2c1CC[C@@H]2Oc1cc(OCc2cncc(C#N)c2)c(CN[C@H]2CCC(=O)NC2)cc1Cl` had an IC50 of 5 to 500 nM.

Molecule `N#Cc1cncc(COc2cc(O[C@H]3CCc4c(-c5cccc(OCCCN6CC7(CC(F)C7)C6)c5Cl)cccc43)c(Cl)cc2CN[C@H]2CC[C@@H]2O)c1` yielded an IC50 below 5 nM.

The molecule `N#Cc1cncc(COc2cc(O[C@H]3CCc4c(-c5cccc(OCCCN6CC7(CC(F)C7)C6)c5Cl)cccc43)c(Cl)cc2CN[C@@H]2CC[C@H]2O)c1` returned an IC50 below 5 nM.

Regarding `Cc1c(OCCCN2CC3(CC(F)C3)C2)cccc1-c1cccc2c1CC[C@@H]2Oc1cc(OCc2cc(C#N)cc(C#N)c2)c(CN[C@H]2CCC(=O)NC2)cc1Cl`, the IC50 was below 5 nM.

Molecule `Cc1c(OCCCN2CCC(F)CC2)cccc1-c1cccc2c1CC[C@@H]2Oc1cc(OCc2cc(C#N)cc(C#N)c2)c(CN[C@@H]2CCC(=O)NC2)cc1Cl` came in with an IC50 below 5 nM.

`N#Cc1cncc(COc2cc(O[C@H]3CCc4c(-c5cccc(OCCCN6CC7(C6)CC(F)(F)C7)c5Cl)cccc43)c(Cl)cc2CN[C@H]2CC[C@@H]2O)c1` had an IC50 of 5 to 500 nM.

For `N#Cc1cncc(COc2cc(O[C@H]3CCc4c(-c5cccc(OCCCN6CC7(C6)CC(F)(F)C7)c5Cl)cccc43)c(Cl)cc2CN[C@@H]2CC[C@H]2O)c1`, the IC50 is below 5 nM.
